# Data published in US20100273726A1, “METHICILLIN-RESISTANT STAPHYLOCOCCUS AUREUS ACTIVE METABOLITES ISOLATED FROM LAURUS NOBILIS AND COMBINATIONS THEREOF” (TRITON BIOPHARMA, priority 2009, published 2010).
# Assays:
# [1] = system: Methicillin-resistant Staphylococcus aureus; assay: In vivo MRSA assay, thigh infection in neutropenic mice; set-up: species or system Mice (CD-1); settings: for number of MRSA cfu per gram of muscle tissue: sacrificed after 48 hours; for reduction compared to vehicle control: 48 hours
# Procedure: The in vivo antimicrobial activity for the isolated glycosides is represented in FIGS. 2A and 2B. Mice (CD-1) were purchased from Harlan Inc. and acclimatized up to 5 days before use. Food and water were available ad libitum throughout the study. They were rendered neutropenic by two injections of cyclophosphamide (100 mg/kg) given intraperitoneally, one and four days before infection. A volume of 50 uL suspension of Methicillin-resistant Staphylococcus aureus (1.5×10^6 live organisms) was injected intramuscularly (1M) into each of the two rear thighs. Each thigh was considered as an individual data point (total of 4 data points for each treatment). These mice were randomly distributed into the control or treatment groups (n=2/group).
# Treatment with the test compound (1) was initiated via the intraperitoneal route 2 hrs after thigh inoculation. Control animals were concurrently administered saline (mock treatment) or vancomycin in the same volume as those receiving compound (1). All animals were sacrificed after 48 hours by CO2 inhalation. Immediately following sacrifice, thigh tissue was collected from the animals, weighed, and homogenized in 5.0 mL of saline. Thigh muscle homogenate was then processed for microbiological assay to determine the number of MRSA cfu per gram of muscle tissue.
# [2] = preliminary maximum tolerated dose experiment; format: in vivo; settings: maximum of 20 mg/kg IP for two days
# Procedure: The number of MRSA isolated from vancomycin treated animals was 2.2×10^7 g of tissue, a reduction of 72% compared to vehicle control. Similarly, the number of MRSA recovered after treatment with compound (1) at 3 mg/kg and 15 mg/kg were 2.6×10^7 and 1.8×10^7 respectively, which correspond to a reduction of 67% and 78% as compared to vehicle control. […] To determine the maximum tolerated dose in the preliminary experiment, a maximum of 20 mg/kg of compound (1) was giving IP for two days.
# [3] = system: methicillin resistant Staphylococcus aureus (MRSA); assay: in vitro antimicrobial evaluation (modified CLSI method); format: cell-based; settings: IC50 from percent growth versus test concentration
# Procedure: The in vitro antimicrobial activity for the isolated glycosides is represented in FIG. 1. A modified version of CLSI (formerly NCCLS) method was used for the in vitro evaluation of test samples. Duplicate samples were transferred to 96-well microplates after diluting with 0.9% saline. The microbial cell suspensions were to give the desired target inocula after addition to the samples. Media and solvent controls were included in each assay. The IC50 was calculated by plotting percent growth versus test concentration.
# MRSA = settings: background statement; cited from earlier work
# [4] = vancomycin control, dose not given
structure (smiles),measurement,setting,value
"C[C@@H]1O[C@@H](Oc2c(-c3ccc(O)cc3)oc3cc(O)cc(O)c3c2=O)[C@H](OC(=O)/C=C/c2ccc(O)cc2)[C@H](OC(=O)/C=C/c2ccc(O)cc2)[C@H]1O [compound 1, kaempferol 3-O-α-L-(2″,3″-di-E-p-coumaroyl)rhamnoside]",number of MRSA cfu per gram of muscle tissue,"[1]; 3 mg/kg intraperitoneal, 2 hrs after inoculation",2.6×10^7 cfu/g
same,reduction compared to vehicle control,[1]; 3 mg/kg intraperitoneal,67%
same,number of MRSA cfu per gram of muscle tissue,"[1]; 15 mg/kg intraperitoneal, 2 hrs after inoculation",1.8×10^7 cfu/g
same,reduction compared to vehicle control,[1]; 15 mg/kg intraperitoneal,78%
same,acute toxicity / untoward effect,[2],No untoward effect
"C[C@@H]1O[C@@H](Oc2c(-c3ccc(O)cc3)oc3cc(O)cc(O)c3c2=O)[C@H](OC(=O)/C=C\c2ccc(O)cc2)[C@H](OC(=O)/C=C\c2ccc(O)cc2)[C@H]1O [compound 4, kaempferol 3-O-α-L-(2″,3″-di-Z-p-coumaroyl)rhamnoside]",in vitro activity (rank among the four compounds),[3],most potent
"CN[C@H](CC(C)C)C(=O)N[C@H]1C(=O)N[C@@H](CC(N)=O)C(=O)N[C@H]2C(=O)N[C@H]3C(=O)N[C@H](C(=O)N[C@H](C(=O)O)c4cc(O)cc(O)c4-c4cc3ccc4O)[C@H](O)c3ccc(c(Cl)c3)Oc3cc2cc(c3O[C@@H]2O[C@H](CO)[C@@H](O)[C@H](O)[C@H]2O[C@H]2C[C@](C)(N)[C@H](O)[C@H](C)O2)Oc2ccc(cc2Cl)[C@H]1O [vancomycin, reference compound]",reduction compared to vehicle control,[1]; [4],72%
same,number of MRSA cfu per gram of muscle tissue,[1]; [4],2.2×10^7 cfu/g
same,success rate,MRSA,35-57%
